# Experimental data as given in the supplement of paper PMC10307832.
# What was measured:
# Test in all cases: relative viability (nuclei count vs DMSO), 5 days (fraction); higher = more cells survive
# HARA = tested on: HARA
# How it was run: (§1)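 Five library-drug doses in √10 steps were combined with a fixed anchor-drug dose, or a single drug was given alone, by pin tool to lung cancer cell lines in 1536-well plates the day after seeding. Nuclei were stained and counted after 5 days. Relative viability is the nuclei count in treated wells over that in vehicle wells, taken as the median of duplicate plates.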
# LOU-NH91 = tested on: LOU-NH91
# How it was run: as §1
# NCI-H23 = tested on: NCI-H23
# How it was run: as §1
# LXF-289 = tested on: LXF-289
# How it was run: as §1
# PC-3 [JPC-3] = tested on: PC-3 [JPC-3]
# How it was run: as §1
# NCI-H647 = tested on: NCI-H647
# How it was run: as §1
# LCLC-103H = tested on: LCLC-103H
# How it was run: as §1
# COR-L23 = tested on: COR-L23
# How it was run: as §1
# NCI-H1793 = tested on: NCI-H1793
# How it was run: as §1
# NCI-H1651 = tested on: NCI-H1651
# How it was run: as §1
# NCI-H838 = tested on: NCI-H838
# How it was run: as §1
# NCI-H522 = tested on: NCI-H522
# How it was run: as §1
# RERF-LC-KJ = tested on: RERF-LC-KJ
# How it was run: as §1
# LCLC-97TM1 = tested on: LCLC-97TM1
# How it was run: as §1
# UMC-11 = tested on: UMC-11
# How it was run: as §1
# LK-2 = tested on: LK-2
# How it was run: as §1
# NCI-H1650 = tested on: NCI-H1650
# How it was run: as §1
# NCI-H2347 = tested on: NCI-H2347
# How it was run: as §1
# A-427 = tested on: A-427
# How it was run: as §1
# 201T = tested on: 201T
# How it was run: as §1
# NCI-H520 = tested on: NCI-H520
# How it was run: as §1
# HCC-78 = tested on: HCC-78
# How it was run: as §1
# NCI-H2405 = tested on: NCI-H2405
# How it was run: as §1
smiles,measurement,setting,value
Cc1csc(=NC2CCCCC2)n1/N=C/c1ccc(O)c(O)c1O [MIM1] + Nc1nc2[nH]cc(CCc3ccc(C(=O)N[C@@H](CCC(=O)O)C(=O)O)cc3)c2c(=O)[nH]1 [Pemetrexed] (partner 0.2 µM),relative viability,HARA; first compound 0.2 µM,0.22
same,relative viability,HARA; first compound 0.6325 µM,0.261
same,relative viability,HARA; first compound 2 µM,0.237
same,relative viability,HARA; first compound 6.325 µM,0.234
same,relative viability,HARA; first compound 20 µM,0.149
same,relative viability,LOU-NH91; first compound 0.2 µM,0.335
same,relative viability,LOU-NH91; first compound 0.6325 µM,0.466
same,relative viability,LOU-NH91; first compound 2 µM,0.383
same,relative viability,LOU-NH91; first compound 6.325 µM,0.403
same,relative viability,LOU-NH91; first compound 20 µM,0.285
same,relative viability,NCI-H23; first compound 0.2 µM,0.667
same,relative viability,NCI-H23; first compound 0.6325 µM,0.469
same,relative viability,NCI-H23; first compound 2 µM,0.717
same,relative viability,NCI-H23; first compound 6.325 µM,0.5
same,relative viability,NCI-H23; first compound 20 µM,0.204
same,relative viability,LXF-289; first compound 0.2 µM,0.9
same,relative viability,LXF-289; first compound 0.6325 µM,0.737
same,relative viability,LXF-289; first compound 2 µM,0.891
same,relative viability,LXF-289; first compound 6.325 µM,0.715
same,relative viability,LXF-289; first compound 20 µM,0.453
same,relative viability,PC-3 [JPC-3]; first compound 0.2 µM,1.18
same,relative viability,PC-3 [JPC-3]; first compound 0.6325 µM,1.04
same,relative viability,PC-3 [JPC-3]; first compound 2 µM,1.14
same,relative viability,PC-3 [JPC-3]; first compound 6.325 µM,0.948
same,relative viability,PC-3 [JPC-3]; first compound 20 µM,0.485
same,relative viability,NCI-H647; first compound 0.2 µM,0.187
same,relative viability,NCI-H647; first compound 0.6325 µM,0.186
same,relative viability,NCI-H647; first compound 2 µM,0.178
same,relative viability,NCI-H647; first compound 6.325 µM,0.162
same,relative viability,NCI-H647; first compound 20 µM,0.117
same,relative viability,LCLC-103H; first compound 0.2 µM,0.413
same,relative viability,LCLC-103H; first compound 0.6325 µM,0.499
same,relative viability,LCLC-103H; first compound 2 µM,0.456
same,relative viability,LCLC-103H; first compound 6.325 µM,0.466
same,relative viability,LCLC-103H; first compound 20 µM,0.393
same,relative viability,COR-L23; first compound 0.2 µM,0.208
same,relative viability,COR-L23; first compound 0.6325 µM,0.194
same,relative viability,COR-L23; first compound 2 µM,0.191
same,relative viability,COR-L23; first compound 6.325 µM,0.19
same,relative viability,COR-L23; first compound 20 µM,0.198
same,relative viability,NCI-H1793; first compound 0.2 µM,0.937
same,relative viability,NCI-H1793; first compound 2 µM,1.13
same,relative viability,NCI-H1793; first compound 6.325 µM,0.848
same,relative viability,NCI-H1793; first compound 20 µM,0.936
same,relative viability,NCI-H1651; first compound 0.2 µM,0.57
same,relative viability,NCI-H1651; first compound 0.6325 µM,0.443
same,relative viability,NCI-H1651; first compound 2 µM,0.564
same,relative viability,NCI-H1651; first compound 6.325 µM,0.476
same,relative viability,NCI-H1651; first compound 20 µM,0.558
same,relative viability,NCI-H838; first compound 0.2 µM,0.244
same,relative viability,NCI-H838; first compound 0.6325 µM,0.376
same,relative viability,NCI-H838; first compound 2 µM,0.243
same,relative viability,NCI-H838; first compound 6.325 µM,0.269
same,relative viability,NCI-H838; first compound 20 µM,0.226
same,relative viability,NCI-H522; first compound 0.2 µM,1.09
same,relative viability,NCI-H522; first compound 0.6325 µM,1.31
same,relative viability,NCI-H522; first compound 2 µM,0.951
same,relative viability,NCI-H522; first compound 6.325 µM,1.01
same,relative viability,NCI-H522; first compound 20 µM,0.481
same,relative viability,RERF-LC-KJ; first compound 0.2 µM,0.47
same,relative viability,RERF-LC-KJ; first compound 0.6325 µM,0.466
same,relative viability,RERF-LC-KJ; first compound 2 µM,0.369
same,relative viability,RERF-LC-KJ; first compound 6.325 µM,0.361
same,relative viability,RERF-LC-KJ; first compound 20 µM,0.165
same,relative viability,LCLC-97TM1; first compound 0.2 µM,0.147
same,relative viability,LCLC-97TM1; first compound 0.6325 µM,0.142
same,relative viability,LCLC-97TM1; first compound 2 µM,0.167
same,relative viability,LCLC-97TM1; first compound 6.325 µM,0.172
same,relative viability,LCLC-97TM1; first compound 20 µM,0.054
same,relative viability,UMC-11; first compound 0.2 µM,0.721
same,relative viability,UMC-11; first compound 0.6325 µM,0.848
same,relative viability,UMC-11; first compound 2 µM,0.815
same,relative viability,UMC-11; first compound 6.325 µM,0.739
same,relative viability,UMC-11; first compound 20 µM,0.369
same,relative viability,LK-2; first compound 0.2 µM,0.276
same,relative viability,LK-2; first compound 0.6325 µM,0.298
same,relative viability,LK-2; first compound 2 µM,0.197
same,relative viability,LK-2; first compound 6.325 µM,0.272
same,relative viability,LK-2; first compound 20 µM,0.218
same,relative viability,NCI-H1650; first compound 0.2 µM,0.341
same,relative viability,NCI-H1650; first compound 0.6325 µM,0.393
same,relative viability,NCI-H1650; first compound 2 µM,0.363
same,relative viability,NCI-H1650; first compound 6.325 µM,0.191
same,relative viability,NCI-H1650; first compound 20 µM,0.202
same,relative viability,NCI-H2347; first compound 0.2 µM,0.465
same,relative viability,NCI-H2347; first compound 0.6325 µM,0.422
same,relative viability,NCI-H2347; first compound 2 µM,0.415
same,relative viability,NCI-H2347; first compound 6.325 µM,0.421
same,relative viability,NCI-H2347; first compound 20 µM,0.399
same,relative viability,A-427; first compound 0.2 µM,1.02
same,relative viability,A-427; first compound 0.6325 µM,0.947
same,relative viability,A-427; first compound 2 µM,0.989
same,relative viability,A-427; first compound 6.325 µM,0.901
same,relative viability,A-427; first compound 20 µM,0.343
same,relative viability,201T; first compound 0.2 µM,0.372
same,relative viability,201T; first compound 0.6325 µM,0.338
same,relative viability,201T; first compound 2 µM,0.38
same,relative viability,201T; first compound 6.325 µM,0.31
same,relative viability,201T; first compound 20 µM,0.318
same,relative viability,NCI-H520; first compound 0.2 µM,0.693
same,relative viability,NCI-H520; first compound 0.6325 µM,0.722
same,relative viability,NCI-H520; first compound 2 µM,0.752
same,relative viability,NCI-H520; first compound 6.325 µM,0.547
same,relative viability,NCI-H520; first compound 20 µM,0.306
same,relative viability,HCC-78; first compound 0.2 µM,0.851
same,relative viability,HCC-78; first compound 2 µM,0.927
same,relative viability,HCC-78; first compound 6.325 µM,0.858
same,relative viability,HCC-78; first compound 20 µM,0.919
same,relative viability,NCI-H2405; first compound 0.2 µM,0.945
same,relative viability,NCI-H2405; first compound 0.6325 µM,0.98
same,relative viability,NCI-H2405; first compound 2 µM,1.17
same,relative viability,NCI-H2405; first compound 6.325 µM,0.752
same,relative viability,NCI-H2405; first compound 20 µM,0.584
